From paper PMC10698194 (Nature Communications, 2023)
Where “and” joins values, the source holds several entries; their conditions need not be identical. Identical values can stand only once. Like-named read-outs stand apart in the source and are kept apart here. Bridge positions count the residues as written; N and C are the ends. Square brackets hold non-standard residues; d marks the D form. Peptide text beside a SMILES is read from it. * marks the point of attachment. X1 = C=CCN1CC[C@]23c4c5ccc(O)c4O[C@H]2[C@H](N*)CC[C@@]3(O)[C@H]1C5

How the values were obtained:
mouse MOR = target: T1, mouse MOR (Mus musculus, UniProt P42866); assay: Schild regression vs DAMGO in cAMP assay, HEK293 cells; format: cell-based; conditions: for log (A'/A-1): Schild plot Figure S14c; for average functional affinity: from pA2
T1 construct: expressed in transfected cells

human MOR [1] = target: T2, human MOR (Homo sapiens, UniProt P35372); assay: [35S]GTPγS binding assay, CHO membranes; format: biochemical; conditions: [35S]GTPγS
T2 construct: expressed in transfected cells

human MOR [2] = target: T2, human MOR; assay: Schild regression vs DAMGO in [35S]GTPγS binding assay, CHO membranes; format: biochemical; conditions: for log (A'/A-1): Schild plot Figure S14d
mouse KOR, Gαi1 = mouse KOR, Gαi1 (Mus musculus, UniProt P33534); assay: TRUPATH BRET G protein assay, Gαi1; format: cell-based; conditions: read-out: Emax (%) Gαi1
mouse KOR, Gαi2 = target: T3, mouse KOR, Gαi2 (Mus musculus, UniProt P33534); assay: TRUPATH BRET G protein assay, Gαi2; format: cell-based; conditions: TRUPATH
T3 construct: expressed in transfected cells; host or cells: HEK293T (ATCC, CRL-3216), transient

mouse KOR, Gαi3 = mouse KOR, Gαi3 (Mus musculus, UniProt P33534); assay: TRUPATH BRET G protein assay, Gαi3; format: cell-based; conditions: read-out: Emax (%) Gαi3
mouse KOR, GαoB = mouse KOR, GαoB (Mus musculus, UniProt P33534); assay: TRUPATH BRET G protein assay, GαoB; format: cell-based; conditions: read-out: Emax (%) GαoB
mouse KOR, Gαz = mouse KOR, Gαz (Mus musculus, UniProt P33534); assay: TRUPATH BRET G protein assay, Gαz; format: cell-based; conditions: Gαz subtype
mouse KOR, Gαgustducin = mouse KOR, Gαgustducin (Mus musculus, UniProt P33534); assay: TRUPATH BRET G protein assay, Gαgustducin; format: cell-based; conditions: read-out: Emax (%) Gαgustducin
male SWISS mice = assay: Formalin test (pain behavior, phase II); format: in vivo, mouse; conditions: for Formalin test (duration of pain behaviour): individual mice, listed as DNCP-ß-NalA (1)
human KOR WT [3] = target: T4, human KOR WT (Homo sapiens, UniProt P41145); assay: cAMP inhibition assay normalized to salvinorin A; format: cell-based; conditions: KOR WT; normalized to salvinorin A
T4 construct: FLAG; expressed in transfected cells; host or cells: HEK293T, transient

human KOR D138A = target: T5, human KOR D138A (Homo sapiens, UniProt P41145, D138A); assay: cAMP inhibition assay normalized to salvinorin A; format: cell-based
T5 construct: expressed in transfected cells

human KOR M142A [4] = target: T6, human KOR M142A (Homo sapiens, UniProt P41145, M142A); format: cell-based; conditions: HEK-293T
T6 construct: FLAG; expressed in transfected cells; host or cells: HEK293 / HEK293T, transient

human KOR K227A = target: T7, human KOR K227A (Homo sapiens, UniProt P41145, K227A); format: cell-based; conditions: HEK-293T
T7 construct: FLAG; expressed in transfected cells; host or cells: HEK293 / HEK293T, transient

human KOR Y320A [5] = target: T8, human KOR Y320A (Homo sapiens, UniProt P41145, Y320A); format: cell-based; conditions: HEK-293T
T8 construct: FLAG; expressed in transfected cells; host or cells: HEK293 / HEK293T, transient

human KOR E297A [6] = target: T9, human KOR E297A (Homo sapiens, UniProt P41145, E297A); format: cell-based; conditions: HEK-293T, KOR E297A
T9 construct: FLAG; expressed in transfected cells; host or cells: HEK293T

human KOR L309A = target: T10, human KOR L309A (Homo sapiens, UniProt P41145, L309A); format: cell-based; conditions: HEK-293T, KOR L309A
T10 construct: FLAG; expressed in transfected cells; host or cells: HEK293T

human KOR Y312A = target: T11, human KOR Y312A (Homo sapiens, UniProt P41145, Y312A); format: cell-based
T11 construct: FLAG; expressed in transfected cells; host or cells: HEK293T

human KOR WT [7] = target: T4, human KOR WT; assay: BRET β-arrestin-2 biosensor assay; format: cell-based; conditions: KOR WT
human KOR Q115A = target: T12, human KOR Q115A (Homo sapiens, UniProt P41145, Q115A); assay: BRET β-arrestin-2 biosensor assay; format: cell-based
T12 construct: FLAG; expressed in transfected cells; host or cells: HEK293 / HEK293T, transient

human KOR I135A = target: T13, human KOR I135A (Homo sapiens, UniProt P41145, I135A); assay: BRET β-arrestin-2 biosensor assay; format: cell-based
T13 construct: FLAG; expressed in transfected cells; host or cells: HEK293 / HEK293T, transient

human KOR M142A [8] = target: T6, human KOR M142A; assay: BRET β-arrestin-2 biosensor assay; format: cell-based
human KOR I316A = target: T14, human KOR I316A (Homo sapiens, UniProt P41145, I316A); assay: BRET β-arrestin-2 biosensor assay; format: cell-based
T14 construct: FLAG; expressed in transfected cells; host or cells: HEK293 / HEK293T, transient

human KOR Y320A [9] = target: T8, human KOR Y320A; assay: BRET β-arrestin-2 biosensor assay; format: cell-based
human KOR E209A = target: T15, human KOR E209A (Homo sapiens, UniProt P41145, E209A); assay: BRET β-arrestin-2 biosensor assay; format: cell-based; conditions: KOR E209A
T15 construct: FLAG; expressed in transfected cells; host or cells: HEK293 / HEK293T, transient

human KOR F293A = target: T16, human KOR F293A (Homo sapiens, UniProt P41145, F293A); assay: BRET β-arrestin-2 biosensor assay; format: cell-based
T16 construct: FLAG; expressed in transfected cells; host or cells: HEK293 / HEK293T, transient

human KOR E297A [10] = target: T9, human KOR E297A; assay: BRET β-arrestin-2 biosensor assay; format: cell-based; conditions: KOR E297A
human KOR H304A = target: T17, human KOR H304A (Homo sapiens, UniProt P41145, H304A); assay: BRET β-arrestin-2 biosensor assay; format: cell-based
T17 construct: FLAG; expressed in transfected cells; host or cells: HEK293T

human KOR = human KOR (Homo sapiens, UniProt P41145); assay: cell-based; design: expressed in transfected cells; host or cells: HEK293, transient; conditions: HEK293, read-out: Emax β-arrestin-1 recruitment
Chain of human KOR (P41145 whole entry): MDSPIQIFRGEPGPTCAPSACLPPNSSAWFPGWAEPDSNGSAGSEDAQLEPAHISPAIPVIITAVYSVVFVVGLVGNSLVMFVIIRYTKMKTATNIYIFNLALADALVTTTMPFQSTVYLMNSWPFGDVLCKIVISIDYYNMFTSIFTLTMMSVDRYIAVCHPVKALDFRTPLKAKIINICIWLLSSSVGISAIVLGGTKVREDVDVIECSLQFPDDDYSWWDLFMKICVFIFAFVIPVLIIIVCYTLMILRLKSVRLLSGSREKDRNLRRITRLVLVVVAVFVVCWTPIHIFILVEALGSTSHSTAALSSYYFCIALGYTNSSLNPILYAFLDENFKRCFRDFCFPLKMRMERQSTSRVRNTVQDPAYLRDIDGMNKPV

T13 sequence (P41145 whole entry I135A): as the sequence (P41145 whole entry) above, with I135A counted along it
T2 sequence (P35372 whole entry): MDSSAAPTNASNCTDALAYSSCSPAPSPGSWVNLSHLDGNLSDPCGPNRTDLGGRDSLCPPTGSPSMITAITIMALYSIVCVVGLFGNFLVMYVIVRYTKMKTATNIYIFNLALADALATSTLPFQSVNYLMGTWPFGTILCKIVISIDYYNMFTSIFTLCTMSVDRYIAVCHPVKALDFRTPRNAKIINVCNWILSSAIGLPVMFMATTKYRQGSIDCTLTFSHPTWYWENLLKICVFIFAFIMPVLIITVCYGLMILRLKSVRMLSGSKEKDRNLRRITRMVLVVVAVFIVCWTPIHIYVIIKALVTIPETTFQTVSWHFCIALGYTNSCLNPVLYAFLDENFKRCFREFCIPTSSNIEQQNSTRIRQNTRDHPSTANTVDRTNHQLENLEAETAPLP
T1 sequence (P42866 whole entry): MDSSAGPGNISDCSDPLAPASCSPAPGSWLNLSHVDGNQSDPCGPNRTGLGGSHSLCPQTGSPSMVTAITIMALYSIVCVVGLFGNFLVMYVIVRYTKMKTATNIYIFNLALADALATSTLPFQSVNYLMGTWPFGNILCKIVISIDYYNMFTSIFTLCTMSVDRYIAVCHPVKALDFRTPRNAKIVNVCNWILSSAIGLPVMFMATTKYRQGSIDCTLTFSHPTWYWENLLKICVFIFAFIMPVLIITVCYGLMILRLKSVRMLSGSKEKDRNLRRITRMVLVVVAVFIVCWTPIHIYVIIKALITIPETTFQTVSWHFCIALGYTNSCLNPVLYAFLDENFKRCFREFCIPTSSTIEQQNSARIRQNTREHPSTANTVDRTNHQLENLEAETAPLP
T6 sequence (P41145 whole entry M142A): as the sequence (P41145 whole entry) above, with M142A counted along it
T9 sequence (P41145 whole entry E297A): as the sequence (P41145 whole entry) above, with E297A counted along it
T4 sequence (P41145 whole entry): as the sequence (P41145 whole entry) above
T11 sequence (P41145 whole entry Y312A): as the sequence (P41145 whole entry) above, with Y312A counted along it
T8 sequence (P41145 whole entry Y320A): as the sequence (P41145 whole entry) above, with Y320A counted along it
T5 sequence (P41145 whole entry D138A): as the sequence (P41145 whole entry) above, with D138A counted along it
Chain of mouse KOR, Gαi3 (P33534 whole entry): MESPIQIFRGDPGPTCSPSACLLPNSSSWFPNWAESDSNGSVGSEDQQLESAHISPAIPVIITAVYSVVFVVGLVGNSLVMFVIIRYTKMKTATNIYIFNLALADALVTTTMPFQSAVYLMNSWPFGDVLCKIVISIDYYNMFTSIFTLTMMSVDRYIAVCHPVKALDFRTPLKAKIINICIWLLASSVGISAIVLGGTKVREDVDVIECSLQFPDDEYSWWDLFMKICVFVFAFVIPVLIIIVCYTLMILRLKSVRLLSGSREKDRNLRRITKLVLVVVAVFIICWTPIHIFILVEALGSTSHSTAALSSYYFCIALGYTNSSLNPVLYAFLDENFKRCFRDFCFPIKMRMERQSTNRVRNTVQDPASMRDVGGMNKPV
Chain of mouse KOR, Gαi3 (P08754 2-354 partner): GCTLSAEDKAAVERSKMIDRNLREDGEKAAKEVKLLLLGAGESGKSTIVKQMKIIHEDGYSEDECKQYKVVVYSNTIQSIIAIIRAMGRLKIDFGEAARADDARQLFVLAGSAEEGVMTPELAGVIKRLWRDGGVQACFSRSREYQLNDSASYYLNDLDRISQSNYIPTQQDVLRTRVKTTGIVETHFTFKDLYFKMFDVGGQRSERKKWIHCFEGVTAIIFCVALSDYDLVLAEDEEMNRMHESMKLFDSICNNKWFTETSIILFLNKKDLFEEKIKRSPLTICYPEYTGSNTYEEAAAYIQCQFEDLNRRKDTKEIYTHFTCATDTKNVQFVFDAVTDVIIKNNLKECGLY
Chain of mouse KOR, Gαz (P33534 whole entry): as the sequence (P33534 whole entry) above
Chain of mouse KOR, Gαz (P19086 2-355 partner): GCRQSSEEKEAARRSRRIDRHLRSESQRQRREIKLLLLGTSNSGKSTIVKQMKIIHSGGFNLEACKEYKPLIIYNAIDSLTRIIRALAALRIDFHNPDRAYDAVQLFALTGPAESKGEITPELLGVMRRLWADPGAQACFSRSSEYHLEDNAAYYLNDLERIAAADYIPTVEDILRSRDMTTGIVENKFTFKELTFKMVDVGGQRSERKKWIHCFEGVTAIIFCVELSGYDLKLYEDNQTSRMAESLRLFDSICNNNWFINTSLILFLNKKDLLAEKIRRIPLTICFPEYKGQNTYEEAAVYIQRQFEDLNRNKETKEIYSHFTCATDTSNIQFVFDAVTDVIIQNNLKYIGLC
Chain of mouse KOR, Gαgustducin (P33534 whole entry): as the sequence (P33534 whole entry) above
Chain of mouse KOR, Gαgustducin (A8MTJ3 2-354 partner): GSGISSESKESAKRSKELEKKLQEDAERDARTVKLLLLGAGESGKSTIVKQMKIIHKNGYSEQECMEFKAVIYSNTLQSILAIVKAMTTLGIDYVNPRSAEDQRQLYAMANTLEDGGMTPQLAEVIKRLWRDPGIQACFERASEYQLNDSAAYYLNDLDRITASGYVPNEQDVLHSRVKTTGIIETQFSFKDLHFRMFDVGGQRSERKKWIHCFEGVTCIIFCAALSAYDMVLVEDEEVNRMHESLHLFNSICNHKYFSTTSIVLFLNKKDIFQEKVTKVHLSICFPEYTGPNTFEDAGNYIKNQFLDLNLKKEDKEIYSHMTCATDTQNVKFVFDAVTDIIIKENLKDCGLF
Chain of mouse KOR, GαoB (P33534 whole entry): as the sequence (P33534 whole entry) above
Chain of mouse KOR, GαoB (P09471 2-354 partner): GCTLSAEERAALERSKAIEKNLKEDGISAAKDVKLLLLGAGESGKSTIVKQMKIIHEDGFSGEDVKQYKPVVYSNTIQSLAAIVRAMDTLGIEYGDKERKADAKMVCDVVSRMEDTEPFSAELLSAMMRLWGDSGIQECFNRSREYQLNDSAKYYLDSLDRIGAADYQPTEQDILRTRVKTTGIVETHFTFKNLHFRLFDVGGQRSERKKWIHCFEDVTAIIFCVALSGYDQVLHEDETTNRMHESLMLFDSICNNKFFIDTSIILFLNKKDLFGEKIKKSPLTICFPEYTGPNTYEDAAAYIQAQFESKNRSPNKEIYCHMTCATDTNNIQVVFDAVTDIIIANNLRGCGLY
T3 sequence (P33534 whole entry): as the sequence (P33534 whole entry) above
Chain of mouse KOR, Gαi1 (P33534 whole entry): as above
Chain of mouse KOR, Gαi1 (P63096 2-354 partner): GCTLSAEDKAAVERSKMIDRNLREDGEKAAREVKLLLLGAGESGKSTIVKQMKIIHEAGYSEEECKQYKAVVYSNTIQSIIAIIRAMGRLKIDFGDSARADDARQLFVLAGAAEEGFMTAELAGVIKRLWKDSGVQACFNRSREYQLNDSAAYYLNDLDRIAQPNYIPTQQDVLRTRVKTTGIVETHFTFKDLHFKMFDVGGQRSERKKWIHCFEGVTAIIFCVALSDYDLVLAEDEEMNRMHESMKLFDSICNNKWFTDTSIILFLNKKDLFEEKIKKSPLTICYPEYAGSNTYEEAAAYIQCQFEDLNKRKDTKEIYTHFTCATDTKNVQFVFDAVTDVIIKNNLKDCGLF
T7 sequence (P41145 whole entry K227A): as the sequence (P41145 whole entry) above, with K227A counted along it
T12 sequence (P41145 whole entry Q115A): as the sequence (P41145 whole entry) above, with Q115A counted along it
T15 sequence (P41145 whole entry E209A): as the sequence (P41145 whole entry) above, with E209A counted along it
T17 sequence (P41145 whole entry H304A): as the sequence (P41145 whole entry) above, with H304A counted along it
T14 sequence (P41145 whole entry I316A): as the sequence (P41145 whole entry) above, with I316A counted along it
T16 sequence (P41145 whole entry F293A): as the sequence (P41145 whole entry) above, with F293A counted along it
T10 sequence (P41145 whole entry L309A): as the sequence (P41145 whole entry) above, with L309A counted along it

Structure (SMILES): C=CCN1CC[C@]23c4c5ccc(O)c4O[C@H]2[C@H](NC(=O)[C@@H](Cc2ccccc2)NC(=O)[C@@H](NC(=O)[C@@H]2CSCC(=O)N[C@@H](Cc4ccc(O)cc4)C(=O)N[C@@H](C)C(=O)N[C@H](Cc4ccc(O)cc4)C(=O)N[C@@H]([C@@H](C)O)C(=O)N[C@@H]([C@@H](C)O)C(=O)N2)[C@@H](C)O)CC[C@@]3(O)[C@H]1C5 [DNCP-β-NalA(1)] ({CH2CO}-YA[dY]TTCT[dF]-X1; thioether N-6)
- log (A'/A-1) (mouse MOR; log B -6.5): 2.497
- log (A'/A-1) (mouse MOR; log B -7): 1.821
- log (A'/A-1) (mouse MOR; log B -7.5): 1.578
- log (A'/A-1) (mouse MOR; log B -8): 1.074
- average functional affinity (mouse MOR): 0.8 nM
- average functional affinity (mouse MOR; authors' response in peer review file): 0.794 nM
- Schild linear regression slope (mouse MOR; vs DAMGO): 0.9
- EC50 (M) MOR (human MOR [1]): no stimulation up to 10 µM
- log (A'/A-1) (human MOR [2]; log B -7): 1.45
- log (A'/A-1) (human MOR [2]; log B -7.5): 0.36
- log (A'/A-1) (human MOR [2]; log B -8): -0.07
- average functional affinity (human MOR [2]; from pA2): 13 nM
- Schild linear regression slope (human MOR [2]; vs DAMGO): 1.5
- Emax (mouse KOR, Gαi1): 81%
- Emax (mouse KOR, Gαi2): 62 ± 6%
- Emax (mouse KOR, Gαi3): 77 ± 3%
- Emax (mouse KOR, GαoB): 76 ± 6%
- highest potency (mouse KOR, Gαz): picomolar range
- Emax (mouse KOR, Gαgustducin): 101 ± 5%
- Formalin test (duration of pain behaviour) (male SWISS mice; 0.8 µmol/kg): 234 s and 278 s and 189 s and 251 s and 382 s and 247 s
- Formalin test (duration of pain behaviour) (male SWISS mice; 1.9 µmol/kg): 208 s and 50 s and 189 s and 169 s and 167 s and 252 s
- antagonism of antinociception by nor-BNI (male SWISS mice; nor-BNI 13.6 µmol kg^−1 s.c. pretreatment): significantly reversed the antinociceptive response
- antinociceptive ED50 (male SWISS mice; s.c., male mice): 1.89 µmol/kg
- effect on pain behavior (male SWISS mice; s.c., male mice): dose-dependent reduction in the pain behavior
- Emax (human KOR WT [3]): 100.6 ± 0.9%
- reduction of cAMP inhibition potency (human KOR D138A; D138A vs WT, authors' response): 17 fold
- Emax (human KOR D138A; KOR D138A, normalized to salvinorin A): 105 ± 2.4%
- Emax (human KOR M142A [4]): 69.4 ± 1.97%
- Emax (human KOR K227A): 47.9 ± 1.19%
- Emax (human KOR Y320A [5]): 86.8 ± 2.05%
- Emax (human KOR E297A [6]): 96.28 ± 0.53%
- Emax (human KOR L309A): 95.98 ± 0.44%
- Emax (human KOR Y312A; HEK-293T, KOR Y312A): 82.46 ± 0.65%
- loss of potency in G protein activation (human KOR Y312A; Y312A vs WT): 4 fold
- Emax (human KOR WT [7]): 35.3 ± 1.13%
- Emax (human KOR Q115A): 60 ± 1.71%
- BRET-βarresin2 recruitment (human KOR I135A; Log [ligand] (M) -5, single replicates): 0.1789 and 0.1779 and 0.1349 and 0.1369 (2×)
- BRET-βarresin2 recruitment (human KOR I135A; Log [ligand] (M) -6, single replicates): 0.1739 and 0.1699 and 0.1669 and 0.1229 and 0.1319 and 0.1359
- BRET-βarresin2 recruitment (human KOR I135A; Log [ligand] (M) -7, single replicates): 0.1699 (2×) and 0.1609 and 0.1309 and 0.1289 and 0.1299
- BRET-βarresin2 recruitment (human KOR I135A; Log [ligand] (M) -8, single replicates): 0.1669 and 0.1659 and 0.1729 and 0.1269 and 0.1239 and 0.1349
- BRET-βarresin2 recruitment (human KOR I135A; Log [ligand] (M) -9, single replicates): 0.1669 (2×) and 0.1649 and 0.1249 and 0.1239 and 0.1259
- BRET-βarresin2 recruitment (human KOR I135A; Log [ligand] (M) -10, single replicates): 0.1689 and 0.1639 (2×) and 0.1279 and 0.1309 and 0.1339
- BRET-βarresin2 recruitment (human KOR I135A; Log [ligand] (M) -11, single replicates): 0.1699 and 0.1669 and 0.1689 and 0.1249 and 0.1279 (2×)
- BRET-βarresin2 recruitment (human KOR I135A; Log [ligand] (M) -12, single replicates): 0.1519 and 0.1569 (2×) and 0.1249 (2×) and 0.1259
- Emax (human KOR M142A [8]): 91.7 ± 11.6%
- Emax (human KOR I316A): 22.7 ± 1.59%
- Emax (human KOR Y320A [9]): 83.5 ± 4.81%
- Emax (human KOR E209A): 87.3 ± 1.31%
- Emax (human KOR F293A): 26.5 ± 1.01%
- Emax (human KOR E297A [10]): 64.6 ± 1.35%
- Emax (human KOR H304A): 34.5 ± 1.18%
- Emax (human KOR): 30%
